Measured values as given in PMC7918612, “Novel Inhibitors of Nicotinamide-N-Methyltransferase for the Treatment of Metabolic Disorders” (Molecules, 2021).
pIC50: −log10 of the molar value. Read-outs that look alike come from different tables or passages of the source.

How the values were obtained:
mouse NNMT = molecular target: T1, mouse NNMT (Mus musculus, UniProt O55239); experiment: Fluorescence-based NNMT enzymatic assay (mouse enzyme); assay type: biochemical; conditions: for pIC50: read-out: mNNMT IC50
T1 sequence (O55239 1-264): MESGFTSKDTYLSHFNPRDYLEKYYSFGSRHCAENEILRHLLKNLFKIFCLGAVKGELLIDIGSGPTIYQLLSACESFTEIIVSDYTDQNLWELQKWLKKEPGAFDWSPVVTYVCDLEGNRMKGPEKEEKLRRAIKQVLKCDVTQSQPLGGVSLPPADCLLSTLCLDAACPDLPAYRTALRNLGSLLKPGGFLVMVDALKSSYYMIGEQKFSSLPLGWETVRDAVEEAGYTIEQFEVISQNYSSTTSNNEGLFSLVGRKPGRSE
Protocol: (§1) Experimental Procedures S2: Fluorescence-based NNMT enzymatic assay
(§2) NNMT activity was measured by fluorescence based assay. The product MNA formed in the reaction reacts with acetophenone in the presence of KOH and formic acid and forms a fluorescent product 2, 7- naphthyridine. The fluorescence intensity measured with excitation at 375nm and emission at 430nm. Inhibitors were screened using human, mouse and monkey NNMT enzymes. Different concentrations of inhibitors were pre-incubated along with 5ng/well of human NNMT enzyme and 3.42ng/well of mouse NNMT enzyme for 30 minutes at room temperature. Reaction was initiated by addition of SAM and nicotinamide mixture (7µM, 20µM, 8µM SAM and 6µM, 20µM, 9µM nicotinamide for human, mouse and monkey NNMT assays respectively) and incubated for 60 minutes at 37°C. The final assay reaction mixture contained a buffer of 100mM Tris Hcl pH 7.5, 0.04% BSA, 2mM Dithiothreitol and 1% DMSO. The reaction was terminated by addition of Ethanol: Acetophenone mix (75% ethanol: 25% Acetophenone) and 5M potassium Hydroxide prepared with 50% Ethanol. The reaction was incubated for 15 minutes followed by addition of 100µl of 60% formic acid and further incubation for 60 minutes at room temperature. A fluorescent product 2, 7- naphthyridine was measured in a Tecan reader with excitation at 375nm and emission at 430nm. The IC50 values were determined by fitting the inhibition curves (percent inhibition versus inhibitor concentration) using a four parametric sigmoidal dose response in graph pad prism. […]

human NNMT = molecular target: T2, human NNMT (Homo sapiens, UniProt P40261); experiment: Fluorescence-based NNMT enzymatic assay (human enzyme); assay type: biochemical; conditions: for pIC50: read-out: hNNMT IC50; for reduction in potency on hNNMT: relative to (1)
T2 sequence (P40261 1-264): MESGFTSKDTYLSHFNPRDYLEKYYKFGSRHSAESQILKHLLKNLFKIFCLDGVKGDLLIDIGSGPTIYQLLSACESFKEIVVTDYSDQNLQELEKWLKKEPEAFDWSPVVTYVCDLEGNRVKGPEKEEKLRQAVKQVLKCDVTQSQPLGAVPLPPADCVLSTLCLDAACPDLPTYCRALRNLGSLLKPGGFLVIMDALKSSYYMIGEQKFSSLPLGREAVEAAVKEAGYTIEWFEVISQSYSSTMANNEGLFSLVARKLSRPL
Protocol: as §1, §2

[1] = Metabolic stability in mouse liver microsomes; assay type: in vitro ADME; conditions: for remaining at 1 h: mouse liver microsomes, read-out: MLM % Remaining at 1 h; for MLM: Table 3, mouse liver microsome data, head HLM/MLM without unit
Protocol: (§3) Experimental Procedures S3: Metabolic stability in human and mouse liver microsomes
(§4) These profiling studies were carried out as described in Mullangi R. et. al. Preclinical assessment of
(§5) ulixertinib, a novel ERK1/2 inhibitor, ADMET & DMPK, 2017, 212-223;

[2] = Metabolic stability in human liver microsomes; assay type: in vitro ADME; design: HLM: unit not given beside the values; conditions: for remaining at 1 h: human liver microsomes, read-out: HLM % Remaining at 1 h; for HLM: Table 3, human liver microsome data, head HLM/MLM without unit
Protocol: as §3, §4, §5

Row | SMILES | pIC50 (mouse NNMT) | hNNMT potency, in words (human NNMT) | pIC50 (human NNMT) | pIC50 (human NNMT; Table 3) | further results
1 | Cc1nn(CC(C)(O)C(=O)N2CCN(c3cccc4cnccc34)CC2)cc1-c1ccccc1 (stereo not shown) [Compound 1] | 6.08 | – | 6.59 | – | –
2 | CCn1c(=N)n2c3c(cccc31)CCC2 [Compound 3] | 6.30 | – | 6.70 | – | mode of inhibition (human NNMT; competition with substrates nicotinamide / SAM): competitive inhibitors either of nicotinamide alone
3 | Cc1nn(CC(C)(O)C(=O)N2CCN(c3cccc4cnccc34)CC2)cc1-c1ccc(F)c(F)c1 (stereo not shown) [Compound 10] | < 5.52 | – | 6.54 | – | remaining at 1 h [1]: < 5%; remaining at 1 h [2]: 7%
4 | Cc1nn(CC(C)(O)C(=O)N2CCN(c3ccc4[nH]ncc4c3)CC2)cc1-c1cccc(F)c1 (stereo not shown) [Compound 19] | – | – | < 5.00 | – | –
5 | Cc1nn(CC(C)(O)C(=O)N2CCN(c3cccc4c3OCC(=O)N4)CC2)cc1-c1cccc(F)c1 (stereo not shown) [Compound 24] | – | – | < 5.00 | – | remaining at 1 h [1]: < 5%; remaining at 1 h [2]: < 5%
6 | Cc1nn(CC(C)(O)C(=O)N2CCC(C3=CC=CC4NC(=O)C=CC34)C2)cc1-c1cccc(F)c1 (stereo not shown) [Compound 26] | – | substantial loss of potency | – | < 5.00 | MLM [1]: < 5; HLM [2]: 12
7 | Cc1nn(CC(C)(O)C(=O)N2CC(c3cccc4[nH]c(=O)ccc34)C2)cc1-c1cccc(F)c1 (stereo not shown) [Compound 27] | – | substantial loss of potency | – | < 4.52 | –
8 | Cc1nn(CC(C)(O)C(=O)N2CCCN(c3cccc4[nH]c(=O)ccc34)CC2)cc1-c1cccc(F)c1 (stereo not shown) [Compound 28] | – | substantial loss of potency | – | < 5.52 | pIC50 (mouse NNMT; Table 3): < 4.52
9 | Cc1nn(CC(C)(O)C(=O)N2CCC(O)(c3cccc4[nH]c(=O)ccc34)CC2)cc1-c1cccc(F)c1 (stereo not shown) [Compound 30] | – | inactive | – | < 5.00 | MLM [1]: <5/<5; HLM [2]: <5/<5

Further lines, with some results ahead:

Row | pIC50 (mouse NNMT) | hNNMT potency, in words (human NNMT) | pIC50 (human NNMT) | pIC50 (human NNMT; Table 3) | SMILES | further results
10 | 9.10 | nanomolar potency | 8.10 | – | COc1ccc(-c2cn(C[C@](C)(O)C(=O)N3CCN(c4cccc5cnccc45)CC3)nc2C)cc1 (stereo in doubt) [Compound 12] | mNNMT potency, in words (mouse NNMT): nanomolar potency
11 | 5.66 | – | 5.78 | – | Cc1nn(CCC(=O)N2CCN(c3cccc4cnccc34)CC2)cc1-c1ccccc1 [Compound 6] | reduction in potency on mouse NMMT (mNNMT) (mouse NNMT; relative to (1)): 2.5 fold; reduction in potency on hNNMT (human NNMT): six-fold reduction
12 | 5.61 | – | 6.06 | – | Cc1nn(CC(O)C(=O)N2CCN(c3cccc4cnccc34)CC2)cc1-c1cccc(F)c1.O=C(O)C(F)(F)F (stereo not shown) [Compound 9] | reduction in potency on hNNMT (human NNMT): three-fold reduction
13 | 5.73 | retains potency | 6.70 | – | Cc1nn(CC(C)(O)C(=O)N2CCN(c3c(F)ccc4cnccc34)CC2)cc1-c1cccc(F)c1 (stereo not shown) [Compound 11] | mNNMT potency, in words (mouse NNMT): retains potency; remaining at 1 h [1]: < 5%; remaining at 1 h [2]: < 5%
14 | 5.46 | – | 6.31 | – | Cc1nn(CC(C)(O)C(=O)N2CCN(c3c(C)sc4cnccc34)CC2)cc1-c1cccc(F)c1 (stereo not shown) [Compound 14] | remaining at 1 h [1]: < 5%; remaining at 1 h [2]: < 5%
15 | – | – | < 5.52 | – | Cc1nn(CC(C)(O)C(=O)N2CCN(c3cccc4[nH]ncc34)CC2)cc1-c1cccc(F)c1 (stereo not shown) [Compound 20] | remaining at 1 h [1]: < 5%; remaining at 1 h [2]: 18%
16 | – | – | – | < 4.52 | Cc1nn(CC(C)(O)C(=O)N2CC(c3cccc4cnccc34)C2)cc1-c1cccc(F)c1 (stereo not shown) [Compound 29] | MLM [1]: <5/<5; HLM [2]: <5/<5
17 | – | completely lost NNMT inhibition | – | < 4.52 | Cc1nn(CC(C)(O)C(=O)N2CCC(O)(c3cccc4c[n+]([O-])ccc34)CC2)cc1-c1cccc(F)c1 (stereo not shown) [Compound 32] | MLM [1]: 32; metabolic stability, in words ([1]; mice): improved metabolic stability; HLM [2]: 72; metabolic stability, in words ([2]; humans): improved metabolic stability
18 | 5.52 | – | 5.60 | – | CC(O)(C/N=c1/sc2cccc3c2n1CCC3)C(=O)N1CCN(c2cccc3cnccc23)CC1 (stereo not shown) [Compound 33] | –
